The record followed here is BindingDB's records for doi:10.1074/jbc.M113.480517 (University of Iowa, 2013).

Test in all cases: DNA Methylation Assay
Conditions in all cases: pH 7.5

Assay [1] has as its target Orphan methyltransferase M.SssI (Spiroplasma monobiae (strain ATCC 33825 / MQ-1), UniProt P15840). On the procedure:
(§1) Assays (0.1 ml) were conducted in 96-well black half-area plates in either a Wallac VICTOR2 or Biotek Synergy Neo plate reader at 37 °C in 10 mM Tris, pH 7.5, 100 mM potassium glutamate, 1 mM MgCl2, 1 mM DTT, 0.1 mg/ml BSA, and 5% glycerol. […] Data were fitted using Prism (GraphPad Software, Inc).

In assay [2] the target is T1, DNA (cytosine-5)-methyltransferase 3A [590-912] (Homo sapiens, UniProt Q9Y6K1).
T1 construct: 590-912
The method, then:
as §1

For assay [3], the target named is T2, DNA (cytosine-5)-methyltransferase 1 [351-1600] (Homo sapiens, UniProt P26358).
T2 construct: 351-1600
On the procedure: as §1

T1 sequence (Q9Y6K1 590-912): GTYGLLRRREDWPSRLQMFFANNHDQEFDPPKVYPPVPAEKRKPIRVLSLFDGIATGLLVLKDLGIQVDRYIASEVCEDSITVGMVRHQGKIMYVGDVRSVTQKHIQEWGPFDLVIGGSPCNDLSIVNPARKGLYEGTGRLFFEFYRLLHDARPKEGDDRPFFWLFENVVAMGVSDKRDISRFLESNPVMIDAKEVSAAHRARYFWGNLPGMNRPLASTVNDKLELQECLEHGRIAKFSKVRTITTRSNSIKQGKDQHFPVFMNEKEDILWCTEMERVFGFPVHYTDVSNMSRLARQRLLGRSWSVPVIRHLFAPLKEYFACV
Sequence of Orphan methyltransferase M.SssI (P15840 whole entry): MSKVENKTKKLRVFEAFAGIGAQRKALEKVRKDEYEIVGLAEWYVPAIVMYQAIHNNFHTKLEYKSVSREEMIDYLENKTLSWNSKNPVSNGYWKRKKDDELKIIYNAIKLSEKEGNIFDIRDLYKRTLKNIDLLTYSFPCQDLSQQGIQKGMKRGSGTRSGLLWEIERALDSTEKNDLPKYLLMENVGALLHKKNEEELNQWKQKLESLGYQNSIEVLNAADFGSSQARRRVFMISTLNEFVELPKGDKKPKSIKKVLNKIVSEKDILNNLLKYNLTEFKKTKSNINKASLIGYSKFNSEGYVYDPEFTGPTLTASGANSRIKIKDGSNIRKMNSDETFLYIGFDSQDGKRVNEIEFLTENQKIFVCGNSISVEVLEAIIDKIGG
T2 sequence (P26358 351-1600): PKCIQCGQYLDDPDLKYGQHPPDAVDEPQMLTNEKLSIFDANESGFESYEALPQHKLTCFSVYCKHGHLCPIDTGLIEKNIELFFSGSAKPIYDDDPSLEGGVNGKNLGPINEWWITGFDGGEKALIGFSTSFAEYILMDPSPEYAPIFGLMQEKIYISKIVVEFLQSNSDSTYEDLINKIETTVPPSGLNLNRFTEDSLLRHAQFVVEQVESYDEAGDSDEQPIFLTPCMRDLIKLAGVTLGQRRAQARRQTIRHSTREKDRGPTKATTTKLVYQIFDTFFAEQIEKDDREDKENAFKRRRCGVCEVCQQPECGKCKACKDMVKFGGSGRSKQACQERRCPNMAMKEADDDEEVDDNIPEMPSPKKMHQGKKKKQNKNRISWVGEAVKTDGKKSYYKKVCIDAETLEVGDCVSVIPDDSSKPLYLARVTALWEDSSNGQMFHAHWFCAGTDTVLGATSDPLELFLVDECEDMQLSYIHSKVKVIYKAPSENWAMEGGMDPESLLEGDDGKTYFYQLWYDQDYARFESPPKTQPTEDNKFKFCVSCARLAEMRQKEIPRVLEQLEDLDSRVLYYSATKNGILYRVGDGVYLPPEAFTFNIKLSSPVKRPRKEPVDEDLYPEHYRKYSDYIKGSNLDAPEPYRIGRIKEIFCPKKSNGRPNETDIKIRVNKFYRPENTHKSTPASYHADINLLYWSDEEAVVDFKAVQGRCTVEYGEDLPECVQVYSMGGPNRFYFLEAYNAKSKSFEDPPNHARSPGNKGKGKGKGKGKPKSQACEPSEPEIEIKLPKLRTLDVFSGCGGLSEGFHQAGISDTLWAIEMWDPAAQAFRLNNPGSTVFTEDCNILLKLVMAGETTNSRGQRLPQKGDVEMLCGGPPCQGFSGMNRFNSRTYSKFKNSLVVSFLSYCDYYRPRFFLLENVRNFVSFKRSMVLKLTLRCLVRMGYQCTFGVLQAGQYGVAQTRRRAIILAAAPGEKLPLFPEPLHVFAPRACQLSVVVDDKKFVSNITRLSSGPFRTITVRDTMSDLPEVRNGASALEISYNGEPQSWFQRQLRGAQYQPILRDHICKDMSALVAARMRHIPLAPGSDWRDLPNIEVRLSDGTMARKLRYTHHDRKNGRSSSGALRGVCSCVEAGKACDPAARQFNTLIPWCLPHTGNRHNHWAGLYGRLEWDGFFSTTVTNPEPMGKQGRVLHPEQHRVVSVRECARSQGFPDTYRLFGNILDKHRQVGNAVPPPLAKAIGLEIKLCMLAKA

For orientation: IC50 means the point on the concentration scale where inhibition reaches its midpoint. `CC(=O)NCCc1ccc(O)c(-c2c(O)c(O)c3c(c2O)C(=O)c2c(cc(O)c(C(=O)O)c2C(=O)O)C3=O)c1`: the IC50 in assay [1] amounted to 53.6 µM; in assay [2], 50.5 µM; in assay [3], 19.1 µM.
